Data reported in US20240254138A1, “TRICYCLIC PYRIMIDINES AS CYCLIN-DEPENDENT KINASE 7 (CDK7) INHIBITORS” (JANSSEN PHARMACEUTICA NV, priority 2021, published 2024).
Like-named read-outs stand apart in the source and are kept apart here.

Key:
[1] = system: RNA Polymerase II Serine 5 phosphorylation in A549 cells overexpressing CDK7-mutant (C312S); assay: Imaging-based cellular RNA PolII Ser5 phosphorylation assay in A549 cells overexpressing CDK7-mutant (C312S); format: cell-based, human; conditions: RNA PolII Ser5 phosphorylation, averaged over all measurements; for CDK7_A549 mutant hCDK7(pIC50): A549 cells overexpressing CDK7-mutant (C312S); for IC50: Homo sapiens, A549, A549 cells overexpressing CDK7-mutant (C312S), read-out: CDK7_A549 mutant hCDK7(pIC50) (converted)
Procedure, shortened: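 A549 cells overexpressing CDK7 C312S (with endogenous wild-type CDK7) were treated with compound for 3 h at 37 °C in 1% FBS medium. Phospho-Rpb1 CTD Ser5 was immunostained after fixation and imaged. IC50 came from curve fit of % control, normalised to DMSO and 10 μM reference-compound controls.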

[2] = biological target: CDK7/cyclinH/MAT1 trimeric complex (Homo sapiens, UniProt P50613); assay: In vitro CDK7 assay, potency of irreversible covalent inhibitors (kinact/KI), coupled PK/LDH ADP readout at 340 nm; conditions: for CDK7 (20 nM enz.) (kinact, s^−1) / CDK7 (20 nM enz.) (kinact/KI, M^−1*s^−1) / Ki: 20 nM enzyme; for Ki: CDK7 (20 nM enz.) (KI, μM); for kinact: read-out: CDK7 (20 nM enz.) (kinact, s^−1), 20 nM enzyme
[3] = system: RNA Polymerase II Serine 5 phosphorylation (Rpb1 CTD, downstream substrate of CDK7) in A549 cells; assay: Imaging-based cellular RNA PolII Ser5 phosphorylation assay in A549 cells; format: cell-based, human; conditions: wild-type CDK7, RNA PolII Ser5 phosphorylation, averaged over all measurements; for CDK7_A549 Wild-type CDK7 (pIC50): A549 cells; for IC50: Homo sapiens, A549, A549 cells, read-out: CDK7_A549 Wild-type CDK7 (pIC50) (converted)
Procedure, shortened: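 A549 cells, seeded 1000/well in DMEM with 1% FBS and cultured 20 h, were treated with compound for 3 h at 37 °C. Ser5-phospho-Rpb1 CTD detected by immunofluorescence imaging after fixation and methanol permeabilization; IC50 from curve fit normalized to DMSO and 10 μM reference-compound controls.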

[4] = read-out: CDK7 (20 nM enz.) (kinact/KI, M^−1*s^−1), 20 nM enzyme
[5] = read-out: CDK7 (20 nM enz.) (kobs/[I], M^−1*s^−1), 20 nM enzyme

Sequence of CDK7/cyclinH/MAT1 trimeric complex (P50613 whole entry): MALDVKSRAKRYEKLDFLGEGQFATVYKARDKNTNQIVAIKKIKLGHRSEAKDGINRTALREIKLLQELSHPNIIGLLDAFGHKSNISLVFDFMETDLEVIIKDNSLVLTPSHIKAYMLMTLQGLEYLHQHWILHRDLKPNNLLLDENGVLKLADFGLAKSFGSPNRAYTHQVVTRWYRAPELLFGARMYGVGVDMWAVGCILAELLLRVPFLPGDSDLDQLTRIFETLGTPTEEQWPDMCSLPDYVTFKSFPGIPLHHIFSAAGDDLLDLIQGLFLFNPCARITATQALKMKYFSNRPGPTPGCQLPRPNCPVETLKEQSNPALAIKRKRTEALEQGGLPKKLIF
Sequence of CDK7/cyclinH/MAT1 trimeric complex (P51946 whole entry partner): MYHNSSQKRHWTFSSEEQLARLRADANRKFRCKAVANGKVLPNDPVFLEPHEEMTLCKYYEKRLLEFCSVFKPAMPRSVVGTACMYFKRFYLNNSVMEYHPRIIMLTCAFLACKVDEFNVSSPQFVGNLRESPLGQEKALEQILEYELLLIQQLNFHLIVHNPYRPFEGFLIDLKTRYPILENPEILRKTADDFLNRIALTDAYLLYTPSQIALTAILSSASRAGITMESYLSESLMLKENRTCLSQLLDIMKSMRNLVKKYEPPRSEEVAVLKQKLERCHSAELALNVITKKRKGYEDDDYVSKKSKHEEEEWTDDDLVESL
Sequence of CDK7/cyclinH/MAT1 trimeric complex (P51948 whole entry partner): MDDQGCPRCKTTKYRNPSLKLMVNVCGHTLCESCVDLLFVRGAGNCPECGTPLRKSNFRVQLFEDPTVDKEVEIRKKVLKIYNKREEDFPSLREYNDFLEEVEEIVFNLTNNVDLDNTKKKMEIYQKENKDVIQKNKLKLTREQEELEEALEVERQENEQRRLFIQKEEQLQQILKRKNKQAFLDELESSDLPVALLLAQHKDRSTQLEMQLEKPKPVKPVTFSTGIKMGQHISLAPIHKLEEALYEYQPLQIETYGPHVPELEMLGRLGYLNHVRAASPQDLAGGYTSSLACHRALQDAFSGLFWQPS

Row | Structure (SMILES) | CDK7_A549 mutant hCDK7(pIC50) [1] | CDK7 (20 nM enz.) (kinact, s^−1) [2] [s⁻¹] | CDK7 (20 nM enz.) (kinact/KI, M^−1*s^−1) [2] [M⁻¹ s⁻¹] | Ki [2] [µM] | CDK7_A549 Wild-type CDK7 (pIC50) [3] | IC50 [1] [nM] | kinact [2] [s⁻¹] | kinact/KI [2, 4] [M⁻¹ s⁻¹] | IC50 [3] [nM] | kinact/KI [2, 5] [M⁻¹ s⁻¹]
1 | C=CC(=O)N1CC[C@@H](N2CC(c3cc4c(c(C5CC5)n3)OCc3c(N5CCOCC5)ccnc3N4)C2)C1 (single isomer, unassigned) [Compound 427] | <5 | 7.839e-05 | 1751.84 | 0.0447 | 6.99 |  |  |  |  | 
2 | CC#CC(=O)N1CCC(N2CC[C@@H](c3cc4c(c(C)n3)OCc3c(N5CCOCC5)ccnc3N4)C2)CC1 (single isomer, unassigned) [Compound 433] |  |  |  | 0.185 |  | 5370 | 1.89e-05 | 102 | 170 | 
3 | CC#CC(=O)N1CC(n2cc(-c3cc4c(c(C)n3)O[C@@H](C)c3c(N5CCOCC5)ccnc3N4)cn2)C1 (single isomer, unassigned) [Compound 437] |  |  |  | 0.0822 |  | > 10000 | 2.31e-05 | 282 | 170 | 
4 | CC#CC(=O)N1CC(N2CC(c3cc4c(c(C)n3)O[C@H](C)c3c(N5CCOCC5)ccnc3N4)C2)C1 (single isomer, unassigned) [Compound 440] | <5 | 0.000050424 | 246.333 | 0.205 | 6.79 |  |  |  |  | 
5 | CC#CC(=O)N1CC(N2CCC(c3cc(C#N)c4c(c3)Nc3nccc(N5CCOCC5)c3[C@H](C)O4)CC2)C1 (single isomer, unassigned) [Compound 442] |  |  |  | 0.772 |  | > 10000 | 3.46e-05 | 44.8 | 562 | 
6 | CC#CC(=O)N1CC(N2CCC(c3cc(C#N)c4c(c3)Nc3nccc(N5CCOCC5)c3C(C)O4)CC2)C1 (single isomer, unassigned) [Compound 443] |  |  |  |  |  | 4270 |  |  | 20.4 | 1430
7 | C=CC(=O)N1CC[C@@H](N2CC(c3cc4c(c(C5CC5)n3)OCc3c(C5CCOCC5)ccnc3N4)C2)C1 (single isomer, unassigned) [Compound 445] |  |  |  | 0.0844 |  | 8510 | 6.94e-05 | 823 | 123 | 
8 | C=CC(=O)N1CC[C@H](N2CC(c3cc4c(c(C5CC5)n3)OCc3c(N5CCOCC5)ccnc3N4)C2)C1 (single isomer, unassigned) [Compound 447] | ~5 | 7.882e-05 | 551.654 | 0.143 | 6.77 |  |  |  |  | 
9 | CC#CC(=O)N1CC(n2cc(-c3cc(C#N)c4c(c3)Nc3nccc(N5CCOCC5)c3[C@H](C)O4)cn2)C1 (single isomer, unassigned) [Compound 449] |  |  |  |  |  | 2340 |  |  | 33.1 | 328
10 | C=CC(=O)N1CC(N2CC[C@H](c3cc4c(c(C)n3)OCc3c(N5CCOCC5)ccnc3N4)N(C)CC2)C1 (single isomer, unassigned) [Compound 452] |  |  |  | 0.0493 |  | 6920 | 4.92e-05 | 997 | 64.6 | 
11 | C=CC(=O)N1CC(N2CC[C@@H](c3cc4c(c(C)n3)OCc3c(N5CCOCC5)ccnc3N4)N(C)CC2)C1 (single isomer, unassigned) [Compound 454] |  |  |  | 0.245 |  | > 10000 | 5.68e-05 | 232 | 257 | 
12 | C=CC(=O)N1CC[C@H](N2CC(c3cc4c(c(C)n3)O[C@H](C)c3c(N5CCOCC5)ccnc3N4)C2)C1 (single isomer, unassigned) [Compound 455] |  |  |  |  |  | > 10000 |  | 179 | 91.2 | 
13 | C=CC(=O)N1CC[C@@H](N2CC(c3cc4c(c(C)n3)O[C@@H](C)c3c(N5CCOCC5)ccnc3N4)C2)C1 (single isomer, unassigned) [Compound 456] |  |  |  | 24.6 |  | > 10000 | 0.000114 | 4.65 | 2880 | 
14 | C=CC(=O)N1CC[C@@H](N2CC(c3cc4c(c(C)n3)O[C@H](C)c3c(N5CCOCC5)ccnc3N4)C2)C1 (single isomer, unassigned) [Compound 457] |  |  |  | 0.214 |  | > 10000 | 0.000104 | 485 | 91.2 | 
15 | C=CC(=O)N1CC[C@H](N2CC(c3cc4c(c(C)n3)O[C@@H](C)c3c(N5CCOCC5)ccnc3N4)C2)C1 (single isomer, unassigned) [Compound 458] |  |  |  | 19.2 |  | > 10000 | 6.89e-05 | 3.59 | 5250 | 
16 | C=CC(=O)N1CC[C@H](N2CC(c3cc(C#N)c4c(c3)Nc3nccc(N5CCOCC5)c3[C@@H](C)O4)C2)C1 (single isomer, unassigned) [Compound 459] |  |  |  |  |  | 4370 |  |  | 72.4 | 734
17 | C=CC(=O)N1CC[C@H](N2CC(c3cc(C#N)c4c(c3)Nc3nccc(N5CCOCC5)c3[C@H](C)O4)C2)C1 (single isomer, unassigned) [Compound 460] |  |  |  |  |  | > 10000 |  | 14.4 | 1290 | 
18 | C=CC(=O)N1CC[C@@H](N2CC(c3cc(C#N)c4c(c3)Nc3nccc(N5CCOCC5)c3[C@H](C)O4)C2)C1 (single isomer, unassigned) [Compound 461] |  |  |  |  |  | > 10000 |  | 16.1 | 692 | 
19 | C=CC(=O)N1CC[C@@H](N2CC(c3cc(C#N)c4c(c3)Nc3nccc(N5CCOCC5)c3[C@@H](C)O4)C2)C1 (single isomer, unassigned) [Compound 462] |  |  |  |  |  | 5250 |  | 509 | 50.1 | 
20 | C=CC(=O)N1CC[C@H](N2CC(c3cc4c(c(C5CC5)n3)O[C@H](C)c3c(N5CCOCC5)ccnc3N4)C2)C1 (single isomer, unassigned) [Compound 463] |  |  |  | 0.423 |  | > 10000 | 3.44e-05 | 81.3 | 1050 | 
21 | CC#CC(=O)N1CC[C@@H](N2CC(c3cc4c(c(C5CC5)n3)O[C@H](C)c3c(N5CCOCC5)ccnc3N4)C2)C1 (single isomer, unassigned) [Compound 464] |  |  |  | 4.03 |  | > 10000 | 2.27e-05 | 5.64 | 7590 | 
22 | C=CC(=O)N1CCC(N2CC(c3cc4c(c(C)n3)O[C@H](C)c3c(C5CCOCC5)ccnc3N4)C2)CC1 (single isomer, unassigned) [Compound 465] |  |  |  | 0.0329 |  | 7080 | 2.79e-05 | 848 | 72.4 | 
23 | C=CC(=O)N1CC[C@H](N2CC(c3cc4c(c(C5CC5)n3)O[C@@H](C)c3c(N5CCOCC5)ccnc3N4)C2)C1 (single isomer, unassigned) [Compound 466] |  |  |  | 0.0307 |  | > 10000 | 5.02e-05 | 1630 | 123 | 
24 | C=CC(=O)N1CC[C@@H](N2CC(c3cc4c(c(C5CC5)n3)O[C@@H](C)c3c(N5CCOCC5)ccnc3N4)C2)C1 (single isomer, unassigned) [Compound 467] |  |  |  | 0.0121 |  | > 10000 | 3.18e-05 | 2630 | 117 | 
